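Compound exposure: 48 hours, 5 concentrations, 96-well plates. GI50 is the concentration that inhibits growth by half.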 Activity calls are given as the source filed them. Rule as the data show it: active = GI50 up to about 1.1 µM and inactive = higher.
Experiments:
Experiment in all cases: NCI anticancer screen, dose series, 48 h
SNB-78 = tested on: SNB-78
XF498 = tested on: XF498
DMS-114 = tested on: DMS-114
HOP-18 = tested on: HOP-18
DMS-273 = tested on: DMS-273
DLD-1 = tested on: DLD-1
KM-20L2 = tested on: KM-20L2
LXFL 529 = tested on: LXFL 529
RXF 631 = tested on: RXF 631

Structure (SMILES)	GI50 (SNB-78)	GI50 (XF498)	GI50 (DMS-114)	GI50 (HOP-18)	GI50 (DMS-273)	GI50 (DLD-1)	GI50 (KM-20L2)	GI50 (LXFL 529)	GI50 (RXF 631)
Clc1ccc(C[P+](c2ccccc2)(c2ccccc2)c2ccccc2)cc1Cl	25.8 µM (inactive)	1.32 µM (inactive)	1.52 µM (inactive)	2.1 µM (inactive)	2.01 µM (inactive)	9.2 µM (inactive)	2.94 µM (inactive)		
Cn1c(/C=C/CO)c(CO)c2c1C(=O)C=C(N1CC1)C2=O [APAZIQUONE]	0.2 µM (active)	< 0.01 µM (active)	< 0.01 µM (active)	< 0.01 µM (active)	< 0.01 µM (active)	0.0152 µM (active)	0.0147 µM (active)		
O=C1OC(c2ccccc2)(c2ccccc2)c2ccc3ccc(F)cc3c21		> 100 µM (inactive)	9.23 µM (inactive)		7.21 µM (inactive)	> 100 µM (inactive)	21.8 µM (inactive)	> 100 µM (inactive)	51.4 µM (inactive)
CCCCCCCCCCNC(=S)OC	53.3 µM (inactive)		15.6 µM (inactive)	> 100 µM (inactive)	51.5 µM (inactive)	36.8 µM (inactive)	32.7 µM (inactive)	33.7 µM (inactive)	62.1 µM (inactive)
CC(C)c1cccc2sc(NC(=O)C(=O)CC(=O)c3ccc(F)cc3)nc12	> 100 µM (inactive)	> 100 µM (inactive)	> 100 µM (inactive)		> 100 µM (inactive)	> 100 µM (inactive)	> 100 µM (inactive)	> 100 µM (inactive)	> 100 µM (inactive)
CC(C)(C)OC(=O)NC(Cc1ccccc1)C(=S)N1CCCC1 (centres undefined)	> 100 µM (inactive)	> 100 µM (inactive)	65.5 µM (inactive)	> 100 µM (inactive)	> 79.3 µM (inactive)	62.4 µM (inactive)	> 100 µM (inactive)	> 90.4 µM (inactive)	> 100 µM (inactive)
CC(=O)OCc1cc(=O)n(C)c2c3c4c(cc12)c(C)cc(=O)n4CO3	1.99 µM (inactive)	1.17 µM (inactive)	1.69 µM (inactive)	5.33 µM (inactive)	0.982 µM (active)	1.37 µM (inactive)	2.02 µM (inactive)		
CC(=O)c1cc([N+](=O)[O-])ccc1OCC(=O)O	> 100 µM (inactive)		> 100 µM (inactive)		> 100 µM (inactive)	> 100 µM (inactive)	> 100 µM (inactive)	> 100 µM (inactive)	> 100 µM (inactive)
OCCN1CCN(CC/C=C2/c3ccccc3Sc3ccc(Cl)cc32)CC1	15.8 µM (inactive)	12.6 µM (inactive)	16.4 µM (inactive)	1.5 µM (inactive)	6.05 µM (inactive)	13.4 µM (inactive)	2.07 µM (inactive)	5.74 µM (inactive)	
NCCCNCCSP(=O)(O)O [AMIFOSTINE]	> 750 µM (inactive)	> 422 µM (inactive)	> 750 µM (inactive)	> 750 µM (inactive)	> 750 µM (inactive)	> 750 µM (inactive)	> 719 µM (inactive)		
COc1ccc(-c2onc(-c3ccc([N+](=O)[O-])cc3)c2C2=NCCCN2)cc1	> 100 µM (inactive)	> 100 µM (inactive)		3.4 µM (inactive)		> 100 µM (inactive)	44.3 µM (inactive)	> 100 µM (inactive)	
CCOc1ccc2nc(NC(=O)C(=O)C(C(=O)c3ccccc3-c3ccccc3)C3OC(=O)c4ccccc43)sc2c1 (centres undefined)	18.6 µM (inactive)	21.3 µM (inactive)	14.8 µM (inactive)		23.1 µM (inactive)	29.6 µM (inactive)	22.4 µM (inactive)	17.4 µM (inactive)	
O=C(O)Cc1cc(=O)[nH]c2c1/C(=N/O)CCC2		> 100 µM (inactive)		> 100 µM (inactive)		> 100 µM (inactive)		> 100 µM (inactive)	
CCCCc1c2c(nc3c1CCCC3=O)C(=O)CCC2	> 100 µM (inactive)	> 100 µM (inactive)	> 100 µM (inactive)	> 100 µM (inactive)	> 100 µM (inactive)	> 100 µM (inactive)	> 100 µM (inactive)	> 100 µM (inactive)	
COc1ccc(-c2nc(SC)n(C3OC(COC(C)=O)C(OC(C)=O)C(OC(C)=O)C3OC(C)=O)c(=O)c2C#N)cc1 (centres undefined)	21 µM (inactive)						95.5 µM (inactive)	35.2 µM (inactive)	
Nc1ccn(C2OC(CO)C(O)C2O)c(=O)n1 (centres undefined)		434 µM (inactive)	0.173 µM (active)		1.74 µM (inactive)	481 µM (inactive)	64 µM (inactive)	> 443 µM (inactive)	
O=C(O)/C(Cl)=C(\Cl)C(=O)c1ccccc1	> 100 µM (inactive)	> 100 µM (inactive)	> 100 µM (inactive)		> 100 µM (inactive)	> 100 µM (inactive)	> 100 µM (inactive)	> 100 µM (inactive)	
Cc1ccc(C)c(N2C(=O)C(=O)C(c3nc4ccccc4o3)/C(=N\NC(=O)c3ccccc3O)C2=O)c1 (centres undefined)	6.08 µM (inactive)		20.1 µM (inactive)	20.9 µM (inactive)	6.14 µM (inactive)	28.9 µM (inactive)	41.1 µM (inactive)	31.8 µM (inactive)	
C=C1C2Oc3ccccc3C1N(c1ccccc1)O2 (centres undefined)		17.4 µM (inactive)	23.3 µM (inactive)		> 10 µM (inactive)	26.7 µM (inactive)	37.6 µM (inactive)	35.2 µM (inactive)	16 µM (inactive)
CCN(CC)CCCNC(=O)C1COc2cc(-c3cc(=O)c4ccccc4o3)ccc2O1 (centres undefined)	> 100 µM (inactive)		25.4 µM (inactive)	> 100 µM (inactive)	65.5 µM (inactive)	65.3 µM (inactive)	34.8 µM (inactive)	53 µM (inactive)	34.4 µM (inactive)
CC[N+]1(C)CCC(O)(c2ccc(OC)cc2)C(C(=O)c2ccc(OC)cc2)C1 (centres undefined)	14.8 µM (inactive)	11 µM (inactive)	19.9 µM (inactive)	14.7 µM (inactive)	19 µM (inactive)	2.88 µM (inactive)	21.9 µM (inactive)	3.49 µM (inactive)	18.5 µM (inactive)
CN(O)C(=O)c1ccccc1		> 100 µM (inactive)	> 100 µM (inactive)		> 100 µM (inactive)	> 100 µM (inactive)	> 100 µM (inactive)	> 100 µM (inactive)	> 100 µM (inactive)
